Experimental data taken from paper PMC4669759 (Cell Death & Disease, 2015).
pIC50: −log10 of the molar value.

Tests used:
MCL-1–BIM complexes = target: T1, MCL-1–BIM complexes (Homo sapiens, UniProt Q07820); assay: MCL-1/BIM co-immunoprecipitation and immunoblot in H929 cells; type: cell-based; details: 10 μM, 4 h
T1 construct: endogenous in cells; host or cells: H929
Protocol: Figure 1 MCL-1 levels are elevated in cancer cells after treatment with MCL-1-binding small molecules. (a) H929 multiple myeloma cells were treated for 4 h with 10 μM A-1210477 before immunopreciptating MCL-1. […] A control H929 lysate was run in lane 1, and an immunoprecipitation with a non-specific antibody (Ig) was run in lane 2. The positions of molecular weight markers (specified in kiloDaltons) are indicated on the left. (b) HCC-1806 breast cancer cells were incubated with increasing concentrations of A-1210477 (0.1, 0.5, 1, 5, 10, 15, or 20 μM) or bortezomib (2, 10, or 50 nM) for 8 h before assessing MCL-1 and NOXA levels by immunoblotting. β-Actin was probed as a protein loading control. The lower graph depicts reverse transcriptase-PCR quantification of MCL1 mRNA from HCC-1806 cells treated for 8 h with similar concentrations of A-1210477. (c) HCC-1806 cells were incubated with increasing concentrations (0.1, 0.5, 1, 5, 10, and 20 μM) of A-954248, A-962653, or A-1248767 for 24 h before assessing MCL-1 and BCL-XL levels by immunoblotting. β-Actin was probed as a protein loading control
Antibodies for MCL-1-BIM co-immunoprecipitation studies were obtained from Thermo Fisher Scientific (Waltham, MA, USA; anti-MCL-1 clone RC13) and Abcam (Cambridge, MA, USA; anti-BIM clone Y36). […]

MCL-1–NOXA interactions = target: T2, MCL-1–NOXA interactions (Homo sapiens, UniProt Q07820); assay: Mammalian two-hybrid assay, MCL-1–NOXA, HeLa cells; type: cell-based; details: 24 h, luciferase two-hybrid
T2 construct: expressed in transfected cells; host or cells: HeLa cells stably expressing a GAL4-luciferase reporter
T2 sequence (Q07820 whole entry, the tested form may be a part): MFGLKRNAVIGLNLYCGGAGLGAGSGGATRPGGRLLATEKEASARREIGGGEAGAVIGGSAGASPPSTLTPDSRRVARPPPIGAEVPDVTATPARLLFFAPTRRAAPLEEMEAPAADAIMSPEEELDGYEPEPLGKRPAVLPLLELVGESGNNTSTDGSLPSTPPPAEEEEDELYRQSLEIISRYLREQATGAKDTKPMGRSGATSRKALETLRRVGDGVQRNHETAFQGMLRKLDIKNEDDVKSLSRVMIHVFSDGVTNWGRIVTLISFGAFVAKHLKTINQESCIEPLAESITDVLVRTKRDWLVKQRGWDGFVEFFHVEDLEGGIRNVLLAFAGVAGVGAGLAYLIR
Protocol: (a) H929 cells were treated with increasing concentrations of A-1210477 for 4 h. […] All data represent the mean of triplicate experiments, with error bars indicating the S.D. (b) Quantitative measurement of protein–protein interactions using a luciferase-based mammalian two-hybrid assay. […] All data represent the means of triplicate experiments, with error bars indicating the S.Ds.
HeLa cells stably expressing a GAL4-luciferase reporter were seeded into 10 cm dishes at 5 × 10^5 cells per plate. In all, 24 μg of a plasmid expressing both the ‘bait' and ‘prey' fusion proteins (GAL4DBD-BIM and VP16AD-BCL-2, GAL4DBD-BCL-XL and VP16AD- BCL-XS, or GAL4DBD-MCL-1 and VP16AD-NOXA, respectively) were mixed with 1.5 ml OptiMEM (Invitrogen). Separately, 24 μl Lipofectamine 2000 (Invitrogen) were mixed with 1.5 ml OptiMEM. Both solutions were incubated for 5 min (RT) and then mixed together for 20 min. Three milliliters of the mixture was added to cells in 12 ml culture medium lacking antibiotics, incubated at 37 °C for 24 h, and then transferred to 96-well plates at 20 000 cells per well. Compounds were added in half-log dilutions, starting from 1 μM and ending at 0.0001 μM for 24 h, and luciferase activity was assessed using ONE-Glo reagent (Promega). All data were plotted as the percentage of complex remaining relative to untreated controls.

T1 sequence (Q07820 whole entry, one chain of several): as the sequence (Q07820 whole entry, the tested form may be a part) above

With `Cc1nn(C)c(COc2ccc(N3CCN(S(=O)(=O)N(C)C)CC3)cc2)c1-c1cccc2c(CCCOc3cccc4ccccc34)c(C(=O)O)n(CCN3CCOCC3)c12` [A-1210477] the “BIM co-immunoprecipitated with MCL-1 antibody” value (MCL-1–BIM complexes) was “reduce the amount of BIM co-immunoprecipitated” and the pIC50 (MCL-1–NOXA interactions) was roughly 6.00.
